# From ChEMBL document CHEMBL1932984, “Novel bis(indolyl)hydrazide-hydrazones as potent cytotoxic agents” (Bioorg Med Chem Lett, 2012)
# Columns and labels:
# Assay type in all cases: functional, cell-based
# LNCaP = experiment: Cytotoxicity against human LNCAP cells
# MCF7 = experiment: Cytotoxicity against human MCF7 cells
# MDA-MB-231 = experiment: Cytotoxicity against human MDA-MB-231 cells
# DU-145 = experiment: Cytotoxicity against human DU145 cells
# MIA PaCa-2 = experiment: Cytotoxicity against human MIAPaCa2 cells
# PC-3 = experiment: Cytotoxicity against human PC3 cells
compound,measurement,setting,value
COc1ccc(Cn2cc(/C=N\NC(=O)c3c[nH]c4ccccc34)c3cc(OC)ccc32)cc1,IC50,LNCaP,> 100 µM
same,IC50,MCF7,15 µM
same,IC50,MDA-MB-231,9.8 µM
same,IC50,DU-145,19.1 µM
same,IC50,MIA PaCa-2,30.5 µM
same,IC50,PC-3,13.6 µM
O=C(N/N=C\c1cn(Cc2ccc(Cl)cc2)c2cc(F)ccc12)c1c[nH]c2ccc(Br)cc12,IC50,LNCaP,24.8 µM
same,IC50,MCF7,8.3 µM
same,IC50,MDA-MB-231,5.1 µM
same,IC50,DU-145,12.5 µM
same,IC50,MIA PaCa-2,10.6 µM
same,IC50,PC-3,12.4 µM
O=C(N/N=C\c1cn(Cc2ccc(Cl)cc2)c2ccccc12)c1c[nH]c2ccccc12,IC50,LNCaP,> 100 µM
same,IC50,MCF7,96.7 µM
same,IC50,MDA-MB-231,66.4 µM
same,IC50,DU-145,52.1 µM
same,IC50,MIA PaCa-2,44.3 µM
same,IC50,PC-3,16.2 µM
COc1ccc(Cn2cc(/C=N\NC(=O)c3c[nH]c4ccccc34)c3ccc(F)cc32)cc1,IC50,LNCaP,> 100 µM
same,IC50,MCF7,13.1 µM
same,IC50,MDA-MB-231,71.2 µM
same,IC50,DU-145,16.2 µM
same,IC50,MIA PaCa-2,43.3 µM
same,IC50,PC-3,18.4 µM
COc1ccc(Cn2cc(/C=N\NC(=O)c3c[nH]c4ccc(Br)cc34)c3cc(OC)ccc32)cc1,IC50,LNCaP,> 100 µM
same,IC50,MCF7,3.1 µM
same,IC50,MDA-MB-231,61.2 µM
same,IC50,DU-145,84.4 µM
same,IC50,MIA PaCa-2,44.5 µM
same,IC50,PC-3,28 µM
COc1ccc(Cn2cc(/C=N\NC(=O)c3c[nH]c4ccc(Br)cc34)c3ccc(F)cc32)cc1,IC50,LNCaP,> 100 µM
same,IC50,MCF7,31.7 µM
same,IC50,MDA-MB-231,99.8 µM
same,IC50,DU-145,67.5 µM
same,IC50,MIA PaCa-2,45.5 µM
same,IC50,PC-3,21.8 µM
COc1ccc(Cn2cc(/C=N\NC(=O)c3cn(C)c4ccccc34)c3ccc(F)cc32)cc1,IC50,LNCaP,9.6 µM
same,IC50,MCF7,22.6 µM
same,IC50,MDA-MB-231,17.7 µM
same,IC50,DU-145,15.2 µM
same,IC50,MIA PaCa-2,55.8 µM
same,IC50,PC-3,12.8 µM
Cn1cc(C(=O)N/N=C\c2cn(Cc3ccc(Cl)cc3)c3cc(F)ccc23)c2ccccc21,IC50,LNCaP,> 100 µM
same,IC50,MCF7,90.6 µM
same,IC50,MDA-MB-231,> 100 µM
same,IC50,DU-145,84.2 µM
same,IC50,MIA PaCa-2,50.4 µM
same,IC50,PC-3,22.1 µM
COc1ccc2c(c1)c(/C=N\NC(=O)c1c[nH]c3ccc(Br)cc13)cn2Cc1ccc(Cl)cc1,IC50,LNCaP,> 100 µM
same,IC50,MCF7,29.1 µM
same,IC50,MDA-MB-231,5 µM
same,IC50,DU-145,57 µM
same,IC50,MIA PaCa-2,26.3 µM
same,IC50,PC-3,15.9 µM
COc1ccc2c(c1)c(/C=N\NC(=O)c1cn(C)c3ccccc13)cn2Cc1ccc(Cl)cc1,IC50,LNCaP,> 100 µM
same,IC50,MCF7,99.1 µM
same,IC50,MDA-MB-231,> 100 µM
same,IC50,DU-145,93 µM
same,IC50,MIA PaCa-2,56.4 µM
same,IC50,PC-3,21.2 µM
O=C(N/N=C\c1cn(Cc2ccc(Cl)cc2)c2ccc(Br)cc12)c1c[nH]c2ccccc12,IC50,LNCaP,3.7 µM
same,IC50,MCF7,3.2 µM
same,IC50,MDA-MB-231,1 µM
same,IC50,DU-145,3.6 µM
same,IC50,MIA PaCa-2,8.7 µM
same,IC50,PC-3,12.4 µM
O=C(N/N=C\c1cn(Cc2ccc(Cl)cc2)c2cc(F)ccc12)c1c[nH]c2ccccc12,IC50,LNCaP,55.2 µM
same,IC50,MCF7,6 µM
same,IC50,MDA-MB-231,5.3 µM
same,IC50,DU-145,18.6 µM
same,IC50,MIA PaCa-2,18 µM
same,IC50,PC-3,19.5 µM
COc1ccc(Cn2cc(/C=N\NC(=O)c3c[nH]c4ccccc34)c3ccccc32)cc1,IC50,LNCaP,31.9 µM
same,IC50,MCF7,12.4 µM
same,IC50,MDA-MB-231,15.1 µM
same,IC50,DU-145,43.9 µM
same,IC50,MIA PaCa-2,41.6 µM
same,IC50,PC-3,14.6 µM
COc1ccc2c(c1)c(/C=N\NC(=O)c1c[nH]c3ccccc13)cn2Cc1ccc(Cl)cc1,IC50,LNCaP,> 100 µM
same,IC50,MCF7,8.7 µM
same,IC50,MDA-MB-231,82.7 µM
same,IC50,DU-145,50 µM
same,IC50,MIA PaCa-2,26.7 µM
same,IC50,PC-3,30.3 µM
COc1cccc2c1C(=O)c1c(O)c3c(c(O)c1C2=O)C[C@@](O)(C(=O)CO)C[C@@H]3O[C@H]1C[C@H](N)[C@H](O)[C@H](C)O1 [DOXORUBICIN],IC50,LNCaP,5.23 µM
same,IC50,MCF7,11.7 µM
same,IC50,MDA-MB-231,3.07 µM
same,IC50,DU-145,15.7 µM
same,IC50,MIA PaCa-2,18.2 µM
same,IC50,PC-3,62.3 µM
